Target: T1, Casein kinase II subunit alpha [1-337] (Homo sapiens, UniProt P68400)
T1 construct: 1-337
Assay: Molecular Docking
From the text: The atomic co-ordinates of CK2α were retrieved from the Protein Data Bank [PDB ID: 3PE1] by deleting the heteroatoms except for water molecules within 6.5 of the ligand. Compounds 12, 23, 10, and 27 were constructed with the SYBYL 8.1 programa using compound CX-4945 as the template and were energy minimized with the Tripos force field. Four compounds were docked into the active site of CK2α using the molecular docking program Genetic Optimization for Ligand Docking (GOLD) version 3.0. The active site of CK2α was defined as a 6.5- -radius sphere centered on CX-4945, which comprise all complete amino acids there in. The crystal structure of CK2a in complex with compound CX-4945 was used to optimize docking parameters and evaluate the reliability of the docking methods. The standard default genetic algorithm (GA) parameters were used for all calculations and applied to predi

T1 sequence (P68400 1-337): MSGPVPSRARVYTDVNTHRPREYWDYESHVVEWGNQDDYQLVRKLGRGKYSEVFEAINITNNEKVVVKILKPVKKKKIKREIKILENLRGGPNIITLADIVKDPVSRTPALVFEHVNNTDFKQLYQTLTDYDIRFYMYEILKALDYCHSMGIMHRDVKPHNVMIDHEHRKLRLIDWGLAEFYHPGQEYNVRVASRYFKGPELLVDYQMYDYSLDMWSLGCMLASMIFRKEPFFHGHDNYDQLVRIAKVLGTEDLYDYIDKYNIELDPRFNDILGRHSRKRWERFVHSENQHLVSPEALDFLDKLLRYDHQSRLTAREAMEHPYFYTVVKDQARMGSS

- IC50: > 2.5 µM
SMILES: N#Cc1ccc2c(c1)nc(-c1ccc(Cl)cc1)c1ccncc12 [5-(4-chlorophenyl)benzo[c]2,6-naphthyridine-8-carbonitrile (Compound 10)]
